# Earlier results, collected in patent US20220370561A1, “LITHIUM AS A MONOTHERAPY AND/OR STEM CELL ADJUVANT THERAPY FOR PULMONARY FIBROSIS” (Therapeutic Solutions International, Inc., priority 2021, published 2022).
# Where two headings read alike, the source gives them in different places.
# Experiments:
# [1] = danazol orally 800 mg per day
# p16/p21 pathway = conditions: in vitro pre-mature senescence model
# mesenchymal stem cells = conditions: culture of cells with valproic acid
# [2] = 12 months, exploratory analysis
SMILES,"hematologic responses (3 months, 19 of 24 evaluable patients)","hematologic responses (24 months, 10 of 12 evaluable patients)","elevated liver-enzyme levels of grade 2 or less, patients [1]","muscle cramps of grade 2 or less, patients [1]","mean increase in telomere length (telomere length; 6 months, exploratory analysis)","patients with increase in telomere length (telomere length; 6 months, exploratory analysis)",mean increase in telomere length (telomere length; [2]),patients with increase in telomere length (telomere length; [2]),mean increase in telomere length (telomere length; 24 months compared with baseline),"patients with a gain in telomere length compared with baseline (telomere length; 24 months, 11 of 12)","telomere attrition in patients evaluable for the primary end point (telomere length; danazol orally 800 mg per day, 24 months)","patients meeting the primary efficacy end point (20% reduction in annual rate of telomere attrition), intention-to-treat (telomere length; danazol orally 800 mg per day, 24 months, 12 of 27 patients)",G2/M phase blockage derived from the senescence stress (p16/p21 pathway),cell proliferation (p16/p21 pathway),apoptosis (p16/p21 pathway; through suppression of the p16/p21 pathway),immune regulatory and metabolic properties of mesenchymal stem cells (mesenchymal stem cells)
C#C[C@]1(O)CC[C@H]2[C@@H]3CCC4=Cc5oncc5C[C@]4(C)[C@H]3CC[C@@]21C [danazol],79%,83%,41%,33%,175 bp,16 of 21,360 bp,16 of 18,386 bp,92%,reduced in all 12 patients,44%,–,–,–,–
CCCC(CCC)C(=O)O [valproic acid],–,–,–,–,–,–,–,–,–,–,–,–,inhibited the G2/M phase blockage,increased cell proliferation,inhibited apoptosis,enhanced
